This note sets out measurements from ChEMBL document CHEMBL2440076, “New triarylpyrazoles as broad-spectrum anticancer agents: design, synthesis, and biological evaluation” (Eur J Med Chem, 2013).

What all share (format): functional
Assay [1] concerns NCI-H23. Put plainly: Growth inhibition of human NCI-H23 cells assessed as cell growth at 5X10'-6 M after 48 hrs by sulforhodamine B assay. To be noted: NCI-H23, 48 h, read-out: Activity. Background: Sulforhodamine B stains cellular protein and so reports cell mass.
For assay [2], the system named is SNB-75. In words: Growth inhibition of human SNB75 cells assessed as cell growth at 3X10'-9 M after 48 hrs by sulforhodamine B assay. To be noted: SNB-75, 48 h, read-out: Activity.
Assay [3] relates to IGROV-1. Put plainly: Growth inhibition of human IGROV1 cells assessed as cell growth at 3X10'-7 M after 48 hrs by sulforhodamine B assay. As to conditions: IGROV-1, 48 h, read-out: Activity.
The subject of another assay is HCT-116. Put plainly: Growth inhibition of human HCT116 cells assessed as cell growth at 3X10'-6 M after 48 hrs by sulforhodamine B assay. To be noted: HCT-116, 48 h, read-out: Activity.
For assay [4], the system named is SW-620. Put plainly: Growth inhibition of human SW620 cells assessed as cell growth at 3X10'-7 M after 48 hrs by sulforhodamine B assay. To be noted: SW-620, 48 h, read-out: Activity.
The next assay concerns LOX IMVI. In words: Growth inhibition of human LOXIMVI cells assessed as cell growth at 3X10'-6 M after 48 hrs by sulforhodamine B assay. To be noted: read-out: Activity.
The test system of assay [5] is IGROV-1. Put plainly: Growth inhibition of human IGROV1 cells assessed as cell growth at 3X10'-5 M after 48 hrs by sulforhodamine B assay. As to conditions: IGROV-1, 48 h, read-out: Activity.
The subject of the next assay is NCI-H322M. Put plainly: Growth inhibition of human NCI-H322M cells assessed as cell growth at 3X10'-7 M after 48 hrs by sulforhodamine B assay. As to conditions: read-out: Activity.
Assay [6] relates to SW-620. In words: Growth inhibition of human SW620 cells assessed as cell growth at 3X10'-5 M after 48 hrs by sulforhodamine B assay. To be noted: SW-620, 48 h, read-out: Activity.
The test system of the next assay is SR. In words: Growth inhibition of human SR cells assessed as cell growth at 3X10'-9 M after 48 hrs by sulforhodamine B assay. To be noted: read-out: Activity.
A further assay relates to U-251. In words: Growth inhibition of human U251 cells assessed as cell growth at 3X10'-6 M after 48 hrs by sulforhodamine B assay. To be noted: U-251, 48 h, read-out: Activity.
The subject of assay [7] is NCI-H226. In words: Growth inhibition of human NCI-H226 cells assessed as cell growth at 3X10'-8 M after 48 hrs by sulforhodamine B assay. To be noted: NCI-H226, 48 h, read-out: Activity.
Another assay relates to BT-549. Put plainly: Growth inhibition of human BT549 cells assessed as cell growth at 3X10'-9 M after 48 hrs by sulforhodamine B assay. As to conditions: BT-549, 48 h, read-out: Activity.
Another assay has as its system A498. Put plainly: Growth inhibition of human A498 cells assessed as cell growth at 3X10'-6 M after 48 hrs by sulforhodamine B assay. As to conditions: A498, 48 h, read-out: Activity.
The subject of assay [8] is NCI-H23. Put plainly: Growth inhibition of human NCI-H23 cells assessed as cell growth at 3X10'-6 M after 48 hrs by sulforhodamine B assay. To be noted: NCI-H23, 48 h, read-out: Activity.
A further assay relates to Malme-3M. Put plainly: Growth inhibition of human MALME-3M cells assessed as cell growth at 3X10'-6 M after 48 hrs by sulforhodamine B assay. To be noted: read-out: Activity.
Assay [9] deals with HT-29. In words: Growth inhibition of human HT-29 cells assessed as cell growth at 3X10'-7 M after 48 hrs by sulforhodamine B assay. To be noted: HT-29, 48 h, read-out: Activity.
Assay [10] has as its system NCI-H460. Put plainly: Growth inhibition of human NCI-H460 cells assessed as cell growth at 3X10'-7 M after 48 hrs by sulforhodamine B assay. As to conditions: NCI-H460, 48 h, read-out: Activity.
Assay [11] relates to MDA-MB-435. In words: Growth inhibition of human MDA-MB-435 cells assessed as cell growth at 3X10'-7 M after 48 hrs by sulforhodamine B assay. As to conditions: MDA-MB-435, 48 h, read-out: Activity.
A further assay relates to HCT-15. Put plainly: Growth inhibition of human HCT15 cells assessed as cell growth at 3X10'-9 M after 48 hrs by sulforhodamine B assay. To be noted: HCT-15, 48 h, read-out: Activity.
The subject of assay [12] is SK-MEL-28. In words: Growth inhibition of human SK-MEL-28 cells assessed as cell growth at 3X10'-9 M after 48 hrs by sulforhodamine B assay. As to conditions: SK-MEL-28, 48 h, read-out: Activity.
Assay [13] deals with T47D. Put plainly: Growth inhibition of human T47D cells assessed as cell growth at 3X10'-8 M after 48 hrs by sulforhodamine B assay. To be noted: read-out: Activity.
Assay [14] relates to NCI-H226. In words: Growth inhibition of human NCI-H226 cells assessed as cell growth at 3X10'-9 M after 48 hrs by sulforhodamine B assay. As to conditions: NCI-H226, 48 h, read-out: Activity.
In assay [15] the test system is HOP-92. In words: Growth inhibition of human HOP92 cells assessed as cell growth at 3X10'-7 M after 48 hrs by sulforhodamine B assay. As to conditions: HOP-92, 48 h, read-out: Activity.
A further assay deals with SK-MEL-5. Put plainly: Growth inhibition of human SK-MEL-5 cells assessed as cell growth at 3X10'-8 M after 48 hrs by sulforhodamine B assay. To be noted: SK-MEL-5, 48 h, read-out: Activity.
Assay [16] relates to MDA-MB-435. In words: Growth inhibition of human MDA-MB-435 cells assessed as cell growth at 3X10'-8 M after 48 hrs by sulforhodamine B assay. To be noted: MDA-MB-435, 48 h, read-out: Activity.
For assay [17], the system named is SNB-75. In words: Growth inhibition of human SNB75 cells assessed as cell growth at 3X10'-7 M after 48 hrs by sulforhodamine B assay. To be noted: SNB-75, 48 h, read-out: Activity.
The subject of assay [18] is SK-MEL-28. Put plainly: Growth inhibition of human SK-MEL-28 cells assessed as cell growth at 3X10'-7 M after 48 hrs by sulforhodamine B assay. To be noted: SK-MEL-28, 48 h, read-out: Activity.
Assay [19] in a line: Growth inhibition of human NCI-ADR-RES cells assessed as cell growth at 3X10'-5 M after 48 hrs by sulforhodamine B assay. To be noted: read-out: Activity.
A further assay relates to SN12C. In words: Growth inhibition of human SN12C cells assessed as cell growth at 3X10'-7 M after 48 hrs by sulforhodamine B assay. As to conditions: read-out: Activity.
The test system of assay [20] is T47D. Put plainly: Growth inhibition of human T47D cells assessed as cell growth at 3X10'-5 M after 48 hrs by sulforhodamine B assay. As to conditions: read-out: Activity.
For assay [21], the system named is HOP-92. In words: Growth inhibition of human HOP92 cells assessed as cell growth at 3X10'-8 M after 48 hrs by sulforhodamine B assay. As to conditions: HOP-92, 48 h, read-out: Activity.
Assay [22] concerns SK-MEL-28. Put plainly: Growth inhibition of human SK-MEL-28 cells assessed as cell growth at 3X10'-8 M after 48 hrs by sulforhodamine B assay. As to conditions: SK-MEL-28, 48 h, read-out: Activity.
Assay [23] deals with NCI-H460. Put plainly: Growth inhibition of human NCI-H460 cells assessed as cell growth at 3X10'-9 M after 48 hrs by sulforhodamine B assay. To be noted: NCI-H460, 48 h, read-out: Activity.
The subject of assay [24] is MDA-MB-435. In words: Growth inhibition of human MDA-MB-435 cells assessed as cell growth at 3X10'-9 M after 48 hrs by sulforhodamine B assay. To be noted: MDA-MB-435, 48 h, read-out: Activity.
The next assay concerns DU-145. Put plainly: Growth inhibition of human DU145 cells assessed as cell growth at 3X10'-9 M after 48 hrs by sulforhodamine B assay. To be noted: DU-145, 48 h, read-out: Activity.
Assay [25] in a line: Growth inhibition of human NCI-ADR-RES cells assessed as cell growth at 3X10'-7 M after 48 hrs by sulforhodamine B assay. To be noted: read-out: Activity.
Assay [26] relates to HT-29. Put plainly: Growth inhibition of human HT-29 cells assessed as cell growth at 3X10'-5 M after 48 hrs by sulforhodamine B assay. To be noted: HT-29, 48 h, read-out: Activity.
For the next assay, the system named is TK-10. Put plainly: Growth inhibition of human TK10 cells assessed as cell growth at 3X10'-9 M after 48 hrs by sulforhodamine B assay. To be noted: TK-10, 48 h, read-out: Activity.

SMILES strings stand for the structures.

Take `COc1cc(-c2nn(-c3cccc(NC(=O)Nc4cccc(C(F)(F)F)c4)c3)cc2-c2ccncc2)ccc1Cl`: the growth at 5 µM with NCI-H23 [1] is -18%.
Consider `COc1cc(-c2nn(-c3cccc(NC(=O)Nc4ccc(Cl)c(C(F)(F)F)c4)c3)cc2-c2ccncc2)ccc1Cl`, for which the growth at 0.003 µM in the assay on SNB-75 [2] is 90%; in the assay on SR, 105%; with BT-549 it was 103%; with HCT-15 it was 94%; with SK-MEL-28 [12] it was 99%; in the assay on NCI-H226 [14], 99%. Moreover, the growth at 0.003 µM is 103% with NCI-H460 [23], 98% in the assay with MDA-MB-435 [24], 102% with DU-145 and 101% in the assay with TK-10. Also, the growth at 0.3 µM in the assay with IGROV-1 [3] came to 109%; in the assay with SW-620 [4], 100%; with NCI-H322M, 91%; with HT-29 [9], 102%; in the assay with NCI-H460 [10], 101%; in the assay on MDA-MB-435 [11], 91%. The growth at 0.3 µM in the assay with HOP-92 [15] worked out at 70%; in the assay with SNB-75 [17], 88%; with SK-MEL-28 [18] it was 95%; with SN12C, 91%; in assay [25], 98%. Besides, the growth at 3 µM with HCT-116 is 11%; in the assay on LOX IMVI, 13%; in the assay on U-251, 7%; in the assay with A498, 12%; in the assay on NCI-H23 [8] it was 11%; with Malme-3M, -16%. Moreover, the growth at 30 µM was -37% in the assay on IGROV-1 [5]; -1% with SW-620 [6]; -5% in assay [19]; 8% in the assay with T47D [20]; -63% with HT-29 [26]. Also, the growth at 0.03 µM is 92% in the assay with NCI-H226 [7]; 101% in the assay with T47D [13]; 91% in the assay on SK-MEL-5; 92% in the assay with MDA-MB-435 [16]; 74% in the assay on HOP-92 [21]; 95% with SK-MEL-28 [22].
In the case of `COc1cc(-c2nn(-c3cccc(NC(=O)Nc4cc(C(F)(F)F)cc(C(F)(F)F)c4)c3)cc2-c2ccncc2)ccc1Cl`, the growth at 5 µM in the assay with NCI-H23 [1] is -18%.
Still for that read-out and setting: then `COc1cc(-c2nn(-c3cccc(NC(=O)c4cccc(C(F)(F)F)c4)c3)cc2-c2ccncc2)ccc1Cl`, with 13%.
With `O=C(Nc1cccc(-n2cc(-c3ccncc3)c(-c3ccc(Cl)c(O)c3)n2)c1)Nc1cccc(C(F)(F)F)c1`, the growth at 0.003 µM was found to be 91% in the assay on SNB-75 [2]; 94% in the assay with SR; 91% with BT-549; 95% in the assay on HCT-15; 103% in the assay on SK-MEL-28 [12]; 98% in the assay on NCI-H226 [14]. Also, the growth at 0.003 µM was determined as 99% in the assay with NCI-H460 [23], 102% with MDA-MB-435 [24], 101% with DU-145 and 94% with TK-10. Also, the growth at 0.3 µM in the assay with IGROV-1 [3] stood at 100%; in the assay with SW-620 [4], 101%; with NCI-H322M, 98%; with HT-29 [9], 111%; in the assay with NCI-H460 [10], 94%; in the assay with MDA-MB-435 [11] it was 96%. For the same compound, the growth at 0.3 µM was 65% in the assay on HOP-92 [15]; 85% with SNB-75 [17]; 101% in the assay on SK-MEL-28 [18]; 99% in the assay with SN12C; 98% in [25]. The growth at 3 µM in the assay with HCT-116 was 23%; with LOX IMVI, 44%; with U-251 it was 29%; in the assay with A498, 44%; in the assay on NCI-H23 [8], 36%; in the assay with Malme-3M, 37%. Further, the growth at 30 µM in the assay with IGROV-1 [5] amounted to 3%; in the assay with SW-620 [6], 8%; in assay [19], 7%; with T47D [20] it was 7%; in the assay on HT-29 [26], 1%. Further, the growth at 0.03 µM in the assay on NCI-H226 [7] was determined as 100%; with T47D [13] it was 95%; in the assay on SK-MEL-5, 98%; with MDA-MB-435 [16], 100%; in the assay with HOP-92 [21] it was 77%; in the assay on SK-MEL-28 [22] it was 100%.
On to `O=C(Nc1cccc(-n2cc(-c3ccncc3)c(-c3ccc(Cl)c(O)c3)n2)c1)Nc1cc(C(F)(F)F)cc(C(F)(F)F)c1`, for which the growth at 5 µM in the assay on NCI-H23 [1] was -18%.
In the case of `O=C(Nc1cccc(-n2cc(-c3ccncc3)c(-c3ccc(Cl)c(O)c3)n2)c1)c1ccc(N2CCOCC2)c(C(F)(F)F)c1`, the growth at 5 µM in the assay on NCI-H23 [1] was found to be 46%.
